Measured values published in patent US12343334B2, “Compositions and methods for treating severe constipation” (Serleva, Inc., priority 2018, dated 2025).

Test system: Male C57BL mice with loperamide-induced constipation
Assay: Mouse model of loperamide-induced constipation
Type: in vivo
Details: Product 1 30 mg/kg oral gavage, 30 min after loperamide 10 mg/kg, final study day, compared to Loperamide/Vehicle
Experimental: Mouse Model of Loperamide-Induced Constipation
Male C57BL mice (6 to 8 weeks, 25-30 grams) were placed on high-fat diet (45% fat) and allowed to acclimate (singly housed on a 12 hr light/dark cycle) for 6 days. Loperamide was administered by oral gavage at 10 mg/kg (10% DMSO/90% of 20% SBE-β-CD in saline) for 3 consecutive days prior to study initiation.
Daily loperamide dosing was continued throughout the entire study. On the 4, day of loperamide administration, Product 1 (30 mg/kg in 10% DMSO/90% of 20% SBE-β-CD in saline) was administered 30 minutes later by oral gavage. Sequential treatment of loperamide and Product 1 (30 minutes post-loperamide dose) was continued for 2 additional days. On the final day of the study, a fourth group of animals received a single subcutaneous administration of naloxone (1 mg/kg) as a positive control.
On the final study day, the number of fecal pellets and pellet weights for each animal were recorded hourly for the 6 hours following dosing. Fecal pellet output was then recorded every other hour for the period of 6-12 hours post-dosing. Additionally, total fecal pellet count for the period of 12 to 24 hours was measured. Fecal pellets were dried for 24 hours and dry weight recorded.
Prism software (GraphPad Prism, San Diego, CA) was employed for graphs and curve fitting. Data was analyzed using a two-way ANOVA with post-hoc LSD test.

O=C(O)CC1CCC(c2ccc(-c3ccc(Nc4ccc(C(F)(F)F)nc4)cn3)cc2)CC1 (stereo not drawn) [Product 1]
significant increase: wet weights of fecal pellets (FPWW) (1-4 hours after administration, FIG. 2) | dry weights of fecal pellets (FPDW) (1-4 hours after administration, FIG. 3) | fecal pellet output (FPCO) (first 1-4 hours after administration, FIG. 1)
